Assay results: patent publication US10597366B2, “Aryl ethers and uses thereof” (Peloton Therapeutics, Inc., priority 2013, dated 2020)
Like-named read-outs stand apart in the source and are kept apart here.

Experiments:
[1] = test system: 786-O-Hif-Luc cells (luciferase gene driven by multiple HIF responsive elements); assay: Luciferase Assay; type: cell-based; conditions: 24 h, 786-O-Hif-Luc cells, about 24 hours; read-out: Mean Luciferease EC50
Protocol: A pool of infected cells were then selected against 2 μg/mL of puromycin (P8833, Sigma) for 10 days followed by limited dilution to select single clones.
Each concentration was tested in triplicate. After about 24 hours, luciferase activity was determined using ONE-Glo Luciferase Assay Reagent (E6110, Promega) following the manufacturer's recommended procedure. EC50 were calculated by using Dotmatics software.

[2] = test system: VEGFA concentration in medium of 786-O cells; assay: VEGF ELISA Assay; type: cell-based; conditions: Homo sapiens
Protocol: Each concentration had duplicated wells. About 20 hours later, medium was removed by suction and each well was supplied with 180 μL of growth medium. About 20 μl freshly-made 10× compound stocks were added to each well. […] The EC50 was calculated by GraphPad Prism using the dose-response-inhibition (four parameter) equation. The cell seeded plate was then subjected to CellTiter-Glo luminescence cell viability assay (Promega) by adding 50 μL of Celltiter Glo reagent into each well and shaking the plate for 8 minutes at 550 rpm (Thermomixer R, Eppendorf) then read luminescence signal in plate reader (3 second delay, 0.5 second/well integration time, Synergy 2 multi Detection Microplate reader) immediately.

[3] = test system: HIF-2α HIS TAG-PASB Domain; assay: HIF-2α Scintillation Proximity Assay (SPA); type: binding; conditions: compounds listed by structure and IUPAC name
Protocol: The percent inhibition was determined and IC50 values were calculated using the Dotmatics system based on the following equation: % inhibition=[(high control sample)/(high control low control)]×100.

[4] = 786-0, 786-O cells, read-out: Mean VEGF ELISA EC50
[5] = 786-0, read-out: Mean VEGF ELISA EC50

EC50 [2, 4] | IC50 [3] | Structure (SMILES) | further results
88 nM |  | O=S(=O)(CF)c1ccc(Oc2cc(F)c(F)c(F)c2)c2c1[C@H](O)C(F)(F)C2 [Compound 188, (S)-2,2-Difluoro-7-((fluoromethyl)sulfonyl)-4-(3,4,5-trifluorophenoxy)-2,3-dihydro-1H-inden-1-ol] | EC50 [1]: 51 nM
700 nM |  | O=[N+]([O-])c1c(Oc2cc(F)cc(Cl)c2)ccc(C(F)(F)F)c1Cl [Compound 203, 2-Chloro-4-(3-chloro-5-fluorophenoxy)-3-nitro-1-(trifluoromethyl)benzene] | EC50 [1]: 630 nM
52 nM |  | CS(=O)(=O)c1ccc(Oc2cncc(C#N)c2)c2c1[C@H](O)C(F)(F)[C@@H]2F [Compound 342, 5-(((1S,3R)-2,2,3-trifluoro-1-hydroxy-7-(methylsulfonyl)-2,3-dihydro-1H-inden-4-yl)oxy)nicotinonitrile] | EC50 [1]: 91 nM
64 nM |  | N#Cc1cncc(Oc2ccc(C(F)(F)F)c3c2CC(F)(F)[C@H]3O)c1 [Compound 303, 5-[(1S)-2,2-difluoro-1-hydroxy-7-(trifluoromethyl)indan-4-yl]oxypyridine-3-carbonitrile] | EC50 [1]: 35 nM
28 nM |  | N#Cc1cc(Oc2ccc(S(=O)(=O)C(F)(F)F)c3c2CC(F)(F)[C@H]3O)ccc1F [Compound 228, (S)-5-((2,2-Difluoro-1-hydroxy-7-((trifluoromethyl)sulfonyl)-2,3-dihydro-1H-inden-4-yl)oxy)-2-fluorobenzonitrile] | EC50 [1]: 33 nM
17 nM |  | CS(=O)(=NC#N)c1ccc(Oc2cc(F)cc(C#N)c2)c2c1[C@H](O)C(F)(F)[C@@H]2F (single isomer, unassigned) [Compound 316] | EC50 [1]: 12 nM
62 nM |  | CS(=O)(=O)c1ccc(Oc2cc(F)cc(Br)c2)c2c1[C@H](O)C(F)(F)C2 [Compound 304, (S)-4-(3-bromo-5-fluorophenoxy)-2,2-difluoro-7-(methylsulfonyl)-2,3-dihydro-1H-inden-1-ol] | EC50 [1]: 22 nM
460 nM |  | Cc1c(S(=O)(=O)C(F)F)ccc(Oc2cc(F)cc(F)c2)c1C#N [Compound 34, 3-((Difluoromethyl)sulfonyl)-6-(3,5-difluorophenoxy)-2-methylbenzonitrile] | EC50 [1]: 520 nM
81 nM |  | CS(=O)(=NC#N)c1ccc(Oc2cc(F)cc(C#N)c2)c2c1[C@H](O)C(F)(F)C2 (stereo partly shown) [Compound 240] | 
 |  | O=S(=O)(c1ccc(Oc2cc(F)cc(Cl)c2)c2c1C(O)CC2)C(F)F (stereo not shown) [Compound 17, 4-(3-chloro-5-fluorophenoxy)-7-((difluoromethyl)sulfonyl)-2,3-dihydro-1H-inden-1-ol] | EC50 [2, 5]: 160 nM
 | > 100000 nM | N=S(=O)(c1ccc(Cl)c(Br)c1Oc1cc(F)cc(Cl)c1)C(F)(F)F (stereo not shown) [[3-bromo-4-chloro-2-(3-chloro-5-fluoro-phenoxy)phenyl]-imino-oxo-(trifluoromethyl)-λ^6-sulfane] | 
 | > 100000 nM | N#Cc1cccc(Oc2ccc(S(=O)(=O)C(F)F)c3cccnc23)c1 [3-[[5-(difluoromethylsulfonyl)-8-quinolyl]oxy]benzonitrile] | 
 | > 100000 nM | CCCCOC(=O)/C=C/c1c(S(=O)(=O)C(F)(F)F)ccc(Oc2cc(F)cc(C#N)c2)c1C [butyl (E)-3-[3-(3-cyano-5-fluoro-phenoxy)-2-methyl-6-(trifluoromethylsulfonyl)phenyl]prop-2-enoate] | 
 | > 100000 nM | O=C(O)c1cc(S(=O)(=O)C(F)(F)F)ccc1Oc1cc(F)cc(Cl)c1 [2-(3-chloro-5-fluorophenoxy)-5-((trifluoromethyl)sulfonyl)benzoic acid] | 
 | > 100000 nM | C[C@H]1Cc2c(Oc3cc(F)cc(C#N)c3)ccc(S(C)(=O)=O)c2[C@H]1O [3-fluoro-5-(((1S,2S)-1-hydroxy-2-methyl-7-(methylsulfonyl)-2,3-dihydro-1H-inden-4-yl)oxy)benzonitrile] | 
 | > 100000 nM | Cc1cc(S(C)(=O)=O)c2c(c1Oc1cc(F)cc(C#N)c1)CCC2O (stereo not shown) [3-fluoro-5-(1-hydroxy-5-methyl-7-methylsulfonyl-indan-4-yl)oxy-benzonitrile] | 
 | > 100000 nM | N#Cc1cc(F)cc(Oc2ccc(Cl)c3c2CCC3)c1 [3-(7-chloroindan-4-yl)oxy-5-fluoro-benzonitrile] | 
 |  | O=S(=O)(c1ccc(Oc2cc(F)cc(Cl)c2)c2c1[C@H](O)CC2)C(F)F [Compound 1, (R)-4-(3-chloro-5-fluorophenoxy)-7-((difluoromethyl)sulfonyl)-2,3-dihydro-1H-inden-1-ol] | EC50 [2, 5]: 250 nM
 |  | N#Cc1ccc(Oc2cc(F)cc(F)c2)c2c1[C@H](O)C(F)(F)C2 [Compound 67, (S)-7-(3,5-Difluorophenoxy)-2,2-difluoro-3-hydroxy-2,3-dihydro-1H-indene-4-carbonitrile] | EC50 [2, 5]: 220 nM

EC50 [2, 4] | IC50 [3] | Structure (SMILES) | further results
 | > 100000 nM | Cc1c(Oc2cc(F)cc(C#N)c2)ccc(S(=O)(=O)C(F)(F)F)c1/C=C/C(=O)OCc1ccccc1 [benzyl (E)-3-[3-(3-cyano-5-fluoro-phenoxy)-2-methyl-6-(trifluoromethylsulfonyl)phenyl]prop-2-enoate] | 
 | > 100000 nM | Cc1cc(Oc2cc(F)cc(C#N)c2)c2c(c1S(C)(=O)=O)C(O)CC2 (stereo not shown) [3-fluoro-5-(1-hydroxy-6-methyl-7-methylsulfonyl-indan-4-yl)oxy-benzonitrile] | 
 | > 100000 nM | O=S(=O)(c1ccc(Oc2cc(F)cc(F)c2)c2c1C(O)CC2)N1CCOCC1 (stereo not shown) [4-(3,5-difluorophenoxy)-7-morpholinosulfonyl-indan-1-ol] | 
 | > 100000 nM | O=C(NCCO)c1c(S(=O)(=O)C(F)F)ccc(Oc2cc(F)cc(Cl)c2)c1C(F)F [3-(3-chloro-5-fluoro-phenoxy)-2-(difluoromethyl)-6-(difluoromethylsulfonyl)-N-(2-hydroxyethyl)benzamide] | 
 | > 100000 nM | Cn1cc(Oc2ccc(S(=O)(=O)C(F)(F)F)c3c2CCC3O)cn1 (stereo not shown) [4-(1-methylpyrazol-4-yl)oxy-7-(trifluoromethylsulfonyl)indan-1-ol] | 
1600 nM |  | O=S(=O)(c1ccc(Oc2cc(F)cc(Cl)c2)c(Br)c1Cl)C(F)(F)F [Compound 179, 2-Bromo-3-chloro-1-(3-chloro-5-fluorophenoxy)-4-((trifluoromethyl)sulfonyl)benzene] | 
 | > 100000 nM | O=S(=O)(c1ccc(Oc2cc(F)cc(Cl)c2)c(CC(O)CO)c1)C(F)(F)F (stereo not shown) [3-[2-(3-chloro-5-fluoro-phenoxy)-5-(trifluoromethylsulfonyl)phenyl]propane-1,2-diol] | 
1870 nM |  | N#Cc1cc(S(=O)(=O)C(F)F)ccc1Oc1cc(F)cc(Cl)c1 [Compound 133, 2-(3-Chloro-5-fluorophenoxy)-5-((difluoromethyl)sulfonyl)benzonitrile] | 
 | > 100000 nM | O=S(=O)(c1ccc(Oc2cc(F)cc(Cl)c2)c2c1C1(CC2)OCCO1)C(F)F [4′-(3-chloro-5-fluoro-phenoxy)-7′-(difluoromethylsulfonyl]spiro[1,3-dioxolane-2,1′-indane]] | 
 | > 100000 nM | NC(=O)c1c(S(=O)(=O)C(F)F)ccc(Oc2cc(F)cc(Cl)c2)c1Br [2-bromo-3-(3-chloro-5-fluoro-phenoxy)-6-(difluoromethylsulfonyl)benzamide] | 
 | > 100000 nM | CNc1c(S(=O)(=O)C(F)(F)F)ccc(Oc2cc(F)cc(Cl)c2)c1C#N [6-(3-chloro-5-fluoro-phenoxy)-2-(methylamino)-3-(trifluoromethylsulfonyl)benzonitrile] | 
 | > 100000 nM | CN(C)[S+]([O-])c1ccc(Oc2cc(F)cc(Cl)c2)c(Br)c1 (stereo not shown) [3-bromo-4-(3-chloro-5-fluoro-phenoxy)-N,N-dimethyl-benzenesulfinamide] | 
 | > 100000 nM | CNC(=O)/C=C/c1c(S(=O)(=O)C(F)(F)F)ccc(Oc2cc(F)cc(C#N)c2)c1C [(E)-3-[3-(3-cyano-5-fluoro-phenoxy)-2-methyl-6-(trifluoromethylsulfonyl)phenyl]-N-methyl-prop-2-enamide] | 
 | > 100000 nM | O=C(O)c1c(S(=O)(=O)C(F)F)ccc(Oc2cc(F)cc(Cl)c2)c1Br [2-bromo-3-(3-chloro-5-fluoro-phenoxy)-6-(difluoromethylsulfonyl)benzoic acid] | 
 | > 100000 nM | Cc1c(Oc2cc(F)cc(C#N)c2)ccc(S(=O)(=O)C(F)(F)F)c1C(O)CO (stereo not shown) [3-[3-(1,2-dihydroxyethyl)-2-methyl-4-(trifluoromethylsulfonyl)phenoxy]-5-fluoro-benzonitrile] | 
640 nM |  | O=S(=O)(c1ccc(Oc2cc(F)cc(Cl)c2)c(Br)c1CO)C(F)(F)F [Compound 102, (2-Bromo-3-(3-chloro-5-fluorophenoxy)-6-((trifluoromethyl)sulfonyl)phenyl)methanol] | 
 | > 100000 nM | NC(=O)c1cc(F)cc(Oc2ccc(S(=O)(=O)C(F)(F)F)cc2Br)c1 [3-[2-bromo-4-(trifluoromethylsulfonyl)phenoxy]-5-fluoro-benzamide] | 
 | > 100000 nM | NS(=O)(=O)c1cccc(Oc2cc(F)cc(Cl)c2)c1[N+](=O)[O-] [3-(3-chloro-5-fluoro-phenoxy)-2-nitro-benzenesulfonamide] | 
 | > 100000 nM | O=S(=O)(c1ccc(Oc2cc(F)cc(Cl)c2)c(Cl)c1CNCC1CCOC1)C(F)F (stereo not shown) [1-[2-chloro-3-(3-chloro-5-fluoro-phenoxy)-6-(difluoromethylsulfonyl)phenyl]-N-(tetrahydrofuran-3-ylmethyl)methanamine] | 
